IC50 and SER2 (concentration data for 20 compounds are collected here from patent publication US9586951B2 (FUJIFILM Corporation, priority 2013, dated 2017).

Structures are written as SMILES.

One assay addresses T1, ATM (Homo sapiens, UniProt Q13315).
T1 construct: detecting phosphorylation of Chk2 in a human non-small cell lung cancer cell line NCI-H460 (ATCC company); host or cells: NCI-H460 human non-small cell lung cancer cells
Kind of assay: ATM inhibition test (phosphorylation of Chk2 generated by ionizing radiation, AlphaScreen SureFire). The format is cell-based. Particulars: phosphorylated Chk2 in NCI-H460 cells, ionizing radiation 8Gy, 1 hour after test compound treatment; read-out: ATM inhibitory activity. In a few lines:
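In NCI-H460 cells, radiation-triggered Chk2 phosphorylation (8Gy, 1 h) is detected by AlphaScreen SureFire following 1 h compound exposure.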
Background: Bead proximity is the source of the signal in Alpha formats.

Assay [1] relates to human non-small cell lung cancer cell line NCI-H460. Kind of assay: Cell proliferation inhibition test by sensitivity-enhancing to ionizing radiation (Cell Titer Glo). The format is cell-based. Particulars: concentration in which SER became 2, NCI-H460 cells, ionizing radiation 2 Gy, cultured 120 hour. The procedure:
A human non-small cell lung cancer cell line NCI-H460 (ATCC company) was adjusted so as to be 2×10^3 cells/mL in a RPMI-1640 medium containing penicillin/streptomycin and FBS having a final concentration of 10%, and this was seeded by 100 μL per well in 96-well CellBIND® plates (Corning International Inc.). After 24 hours, the medium of cells was replaced with 100 μL of a medium including serially diluted liquid of the test compound or DMSO having a final concentration of 0.1%. 30 minutes after the medium was replaced, half of the plates were irradiated with ionizing radiation 2 Gy (Faxitron Bioptics, LLC, RX-650 type). The cells of the plates irradiated with ionizing radiation and the plates not being irradiated with ionizing radiation were cultured at 37° C. for 120 hour in 5% CO2. After a Cell Titer Glo reaction liquid of an equal volume was added to each well, the amount of luminescence was measured, according to the instruction book of Cell Titer Glo (Promega Corporation). Since the amount of luminescence is proportional to the ATP concentration in cells, the amount of luminescence was used as an indicator of the number of viable cells. Sensitivity-enhancing effects (SER) to ionizing radiation by the test compound was calculated by the following equation. SER=(amount of luminescence of wells including DMSO having a final concentration of 0.1% in the plates irradiated with ionizing radiation×amount of luminescence of wells including a compound in the plates not being irradiated with ionizing radiation)/(amount of luminescence of wells including the test compound in the plates irradiated with ionizing radiation×amount of luminescence of wells including DMSO having a final concentration of 0.1% in the plates not being irradiated with ionizing radiation)
SER at each compound concentration was plotted by nonlinear regression fit (FitModel (205)) by a sigmoidal dose-response equation using XLfit software (IDBS), and the concentration (SER2) in which SER became 2 was calculated.
For orientation: In ATP-based viability assays light output follows the ATP content of the culture.

T1 sequence (Q13315 whole entry): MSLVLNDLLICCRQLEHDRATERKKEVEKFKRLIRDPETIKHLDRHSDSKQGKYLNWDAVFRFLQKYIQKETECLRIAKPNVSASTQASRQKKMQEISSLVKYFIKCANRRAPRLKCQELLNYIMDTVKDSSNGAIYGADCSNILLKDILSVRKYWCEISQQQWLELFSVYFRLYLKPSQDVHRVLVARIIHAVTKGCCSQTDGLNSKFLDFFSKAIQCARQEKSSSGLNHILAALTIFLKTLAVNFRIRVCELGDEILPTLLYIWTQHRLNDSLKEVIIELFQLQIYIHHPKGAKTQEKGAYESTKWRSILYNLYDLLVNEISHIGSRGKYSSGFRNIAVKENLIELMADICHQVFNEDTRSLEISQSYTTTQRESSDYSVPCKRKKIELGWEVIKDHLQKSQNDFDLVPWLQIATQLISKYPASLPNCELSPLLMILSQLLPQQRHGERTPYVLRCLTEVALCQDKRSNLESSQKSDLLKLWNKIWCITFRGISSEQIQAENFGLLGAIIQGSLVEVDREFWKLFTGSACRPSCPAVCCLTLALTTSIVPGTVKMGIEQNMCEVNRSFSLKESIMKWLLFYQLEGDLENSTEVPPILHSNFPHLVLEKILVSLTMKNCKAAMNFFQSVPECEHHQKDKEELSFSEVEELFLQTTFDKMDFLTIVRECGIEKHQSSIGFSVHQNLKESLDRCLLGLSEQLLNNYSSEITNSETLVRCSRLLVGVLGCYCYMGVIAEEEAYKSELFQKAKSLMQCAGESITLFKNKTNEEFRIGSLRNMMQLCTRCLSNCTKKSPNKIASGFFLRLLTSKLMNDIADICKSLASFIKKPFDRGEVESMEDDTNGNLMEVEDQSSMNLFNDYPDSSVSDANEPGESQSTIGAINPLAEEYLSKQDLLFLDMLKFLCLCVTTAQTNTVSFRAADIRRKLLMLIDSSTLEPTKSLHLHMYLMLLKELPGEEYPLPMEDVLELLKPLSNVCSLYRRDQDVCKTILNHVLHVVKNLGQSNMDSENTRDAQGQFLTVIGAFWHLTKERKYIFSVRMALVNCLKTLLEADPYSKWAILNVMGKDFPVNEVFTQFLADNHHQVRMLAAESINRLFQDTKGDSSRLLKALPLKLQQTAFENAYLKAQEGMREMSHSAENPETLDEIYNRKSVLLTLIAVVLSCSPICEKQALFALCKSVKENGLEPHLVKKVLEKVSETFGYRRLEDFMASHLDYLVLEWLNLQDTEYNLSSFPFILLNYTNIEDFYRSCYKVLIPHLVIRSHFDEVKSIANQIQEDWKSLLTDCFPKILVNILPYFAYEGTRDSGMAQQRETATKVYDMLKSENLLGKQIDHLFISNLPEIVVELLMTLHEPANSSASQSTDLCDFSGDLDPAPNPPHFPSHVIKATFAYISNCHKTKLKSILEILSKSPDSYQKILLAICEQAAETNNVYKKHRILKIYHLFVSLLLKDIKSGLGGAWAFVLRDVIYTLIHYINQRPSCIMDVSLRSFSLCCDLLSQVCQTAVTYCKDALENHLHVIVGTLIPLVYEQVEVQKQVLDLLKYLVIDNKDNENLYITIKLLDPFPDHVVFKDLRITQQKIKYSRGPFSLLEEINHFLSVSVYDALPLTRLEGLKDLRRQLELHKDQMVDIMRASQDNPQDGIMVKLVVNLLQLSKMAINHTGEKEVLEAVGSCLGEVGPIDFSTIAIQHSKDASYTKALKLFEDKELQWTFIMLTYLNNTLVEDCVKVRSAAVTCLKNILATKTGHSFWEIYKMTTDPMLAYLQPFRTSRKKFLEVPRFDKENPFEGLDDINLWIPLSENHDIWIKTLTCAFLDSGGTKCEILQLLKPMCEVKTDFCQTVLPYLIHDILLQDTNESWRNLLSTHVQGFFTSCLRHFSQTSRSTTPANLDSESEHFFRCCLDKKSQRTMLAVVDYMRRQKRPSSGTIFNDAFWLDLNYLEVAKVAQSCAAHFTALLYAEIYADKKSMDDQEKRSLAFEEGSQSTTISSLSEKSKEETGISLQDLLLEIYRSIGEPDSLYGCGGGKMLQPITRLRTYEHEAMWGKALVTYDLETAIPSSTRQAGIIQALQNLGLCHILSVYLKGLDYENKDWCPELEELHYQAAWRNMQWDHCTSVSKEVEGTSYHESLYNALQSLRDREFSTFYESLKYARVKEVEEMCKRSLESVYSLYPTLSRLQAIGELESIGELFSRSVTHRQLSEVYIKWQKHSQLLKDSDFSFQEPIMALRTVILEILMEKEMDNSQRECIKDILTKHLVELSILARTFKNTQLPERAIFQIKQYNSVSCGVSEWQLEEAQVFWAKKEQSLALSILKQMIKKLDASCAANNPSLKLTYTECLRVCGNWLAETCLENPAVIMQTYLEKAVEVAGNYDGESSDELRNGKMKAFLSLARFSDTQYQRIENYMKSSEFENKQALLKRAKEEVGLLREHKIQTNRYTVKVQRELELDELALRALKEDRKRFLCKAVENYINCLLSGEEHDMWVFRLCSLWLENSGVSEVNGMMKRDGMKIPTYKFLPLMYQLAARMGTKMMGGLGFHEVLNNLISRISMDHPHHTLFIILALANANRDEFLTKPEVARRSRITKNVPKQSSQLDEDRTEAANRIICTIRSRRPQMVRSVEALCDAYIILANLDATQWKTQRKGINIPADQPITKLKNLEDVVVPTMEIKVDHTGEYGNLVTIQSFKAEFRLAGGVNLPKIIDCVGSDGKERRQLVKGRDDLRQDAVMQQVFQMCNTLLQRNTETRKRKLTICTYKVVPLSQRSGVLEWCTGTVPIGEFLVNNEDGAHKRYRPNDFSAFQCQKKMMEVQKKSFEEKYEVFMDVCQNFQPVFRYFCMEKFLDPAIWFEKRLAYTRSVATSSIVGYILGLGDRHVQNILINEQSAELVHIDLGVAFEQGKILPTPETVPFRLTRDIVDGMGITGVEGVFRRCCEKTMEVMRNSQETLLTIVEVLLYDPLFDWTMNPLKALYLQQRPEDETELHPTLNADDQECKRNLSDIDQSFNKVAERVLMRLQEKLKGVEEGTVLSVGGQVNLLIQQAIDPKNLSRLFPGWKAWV

In the case of `CN(C)c1nccc(CNc2ccc3c(c2)Cc2cccc(-c4cc(N5CCOCC5)cc(=O)[nH]4)c2O3)n1` [Example 2-13-5, 6-(7-(((2-(Dimethylamino)pyrimidin-4-yl)methyl)amino)-9H-xanthen-4-yl)-4-morpholino pyridin-2(1H)-one], the IC50 at ATM was < 100 nM. In addition, in assay [1] (Homo sapiens, NCI-H460, 120 h), the SER2 (concentration at which the radiation sensitivity-enhancement ratio reaches 2) fell in the range of 500 to 2000 nM.

Regarding `CNCC(Nc1ccc2c(c1)Sc1cccc(-c3cc(N4CCOCC4)cc(=O)[nH]3)c1S2)c1cccc(C)n1` (stereo not shown) [Example 1-19-1, 6-(7-((2-(Methylamino)-1-(6-methylpyridin-2-yl)ethyl)amino)thianthren-1-yl)-4-morpholinopyridin-2(1H)-one], the IC50 on ATM was < 100 nM. Moreover, the SER2 (concentration at which the radiation sensitivity-enhancement ratio reaches 2) in assay [1] (Homo sapiens, NCI-H460, 120 h) fell in the range of 100 to 500 nM.

`COCC(Nc1ccc2c(c1)Cc1cccc(-c3cc(N4CCOCC4)cc(=O)[nH]3)c1O2)c1cccc(C)n1` (stereo not shown) [Example 2-14-45, 6-(7-((2-Methoxy-1-(6-methylpyridin-2-yl)ethyl)amino)-9H-xanthen-4-yl)-4-morpholino pyridin-2 (1H)-one]: the IC50 at ATM was < 100 nM. Besides, in assay [1] (Homo sapiens, NCI-H460, 120 h), the SER2 (concentration at which the radiation sensitivity-enhancement ratio reaches 2) was 100 to 500 nM.

In the case of `COC[C@H](CN1CCO[C@H](C)C1)Nc1ccc2c(c1)Sc1cccc(-c3cc(N4CCOCC4)cc(=O)[nH]3)c1S2` [Example 1-46-7, 6-(7-(((S)-1-Methoxy-3-((R)-2-methylmorpholino)propan-2-yl)amino)thianthren-1-yl)-4-morpholino pyridin-2(1H)-one], the IC50 on ATM is < 100 nM. Besides, in assay [1] (Homo sapiens, NCI-H460, 120 h), the SER2 (concentration at which the radiation sensitivity-enhancement ratio reaches 2) is 100 to 500 nM.

As to `O=c1cc(N2CCOCC2)cc(-c2cccc3c2Oc2ccc(NCc4ccc(Cl)s4)cc2C3)[nH]1` [Example 2-13-7, 6-(7-(((5-Chlorothiophen-2-yl)methyl)amino)-9H-xanthen-4-yl)-4-morpholino pyridin-2(1H)-one], the IC50 at ATM is < 100 nM. In assay [1] (Homo sapiens, NCI-H460, 120 h), the SER2 (concentration at which the radiation sensitivity-enhancement ratio reaches 2) fell in the range of 500 to 2000 nM.

Turning to `Cc1cccc(CNc2ccc3c(c2)Cc2ccc(F)c(-c4cc(N5CCOCC5)cc(=O)[nH]4)c2O3)n1` [Example 2-46-4, 6-(3-Fluoro-7-(((6-methylpyridin-2-yl)methyl)amino)-9H-xanthen-4-yl)-4-morpholinopyridin-2(1H)-one], on ATM, the IC50 is < 100 nM. In assay [1] (Homo sapiens, NCI-H460, 120 h), the SER2 (concentration at which the radiation sensitivity-enhancement ratio reaches 2) lay in the range of 100 to 500 nM.

Take `CCOc1cncc(CNc2ccc3c(c2)Cc2cccc(-c4cc(N5CCOCC5)cc(=O)[nH]4)c2O3)c1` [Example 2-2-48, 6-(7-(((5-Ethoxypyridin-3-yl)methyl)amino)-9H-xanthen-4-yl)-4-morpholino pyridin-2(1H)-one]: the IC50 at ATM was < 100 nM. For the same compound, the SER2 (concentration at which the radiation sensitivity-enhancement ratio reaches 2) in assay [1] (Homo sapiens, NCI-H460, 120 h) lay within 500 to 2000 nM.

Consider `COc1ccnc(CNc2ccc3c(c2)Cc2cccc(-c4cc(N5CCOCC5)cc(=O)[nH]4)c2O3)n1` [Example 2-13-8, 6-(7-(((4-Methoxypyrimidin-2-yl)methyl)amino)-9H-xanthen-4-yl)-4-morpholino pyridin-2(1H)-one], for which, on ATM, the IC50 was < 100 nM. The SER2 (concentration at which the radiation sensitivity-enhancement ratio reaches 2) in assay [1] (Homo sapiens, NCI-H460, 120 h) was in the range of 500 to 2000 nM.

Consider `CN1CCN(CCNc2ccc3c(c2)Sc2cccc(-c4cc(N5CCOCC5)cc(=O)[nH]4)c2S3)CC1` [Example 1-10-9, 6-(7-((2-(4-Methylpiperazin-1-yl)ethyl)amino)thianthren-1-yl)-4-morpholino pyridin-2(1H)-one], for which, on ATM, the IC50 was < 100 nM. Also, the SER2 (concentration at which the radiation sensitivity-enhancement ratio reaches 2) in assay [1] (Homo sapiens, NCI-H460, 120 h) is 100 to 500 nM.

Take `O=c1cc(N2CCOCC2)cc(-c2cccc3c2Oc2ccc(NCc4cncc(-n5cccc5)c4)cc2S3)[nH]1` [Example 4-4-8, 6-(8-(((5-(1H-Pyrrol-1-yl)pyridin-3-yl)methyl)amino)phenoxathiin-4-yl)-4-morpholino pyridin-2(1H)-one]: the IC50 at ATM is < 100 nM. Further, in assay [1] (Homo sapiens, NCI-H460, 120 h), the SER2 (concentration at which the radiation sensitivity-enhancement ratio reaches 2) lay within 100 to 500 nM.

For the compound `COc1ncc(CNc2ccc3c(c2)Sc2cccc(-c4cc(N5CCOCC5)cc(=O)[nH]4)c2O3)cn1` [Example 4-4-4, 6-(8-(((2-Methoxypyrimidin-5-yl)methyl)amino)phenoxathiin-4-yl)-4-morpholino pyridin-2 (1H)-one], the IC50 on ATM was < 100 nM. In addition, the SER2 (concentration at which the radiation sensitivity-enhancement ratio reaches 2) in assay [1] (Homo sapiens, NCI-H460, 120 h) lay in the range of 500 to 2000 nM.

Consider `Cc1cnc(C(CCN(C)C)Nc2ccc3c(c2)Sc2cccc(-c4cc(N5CCOCC5)cc(=O)[nH]4)c2S3)cn1` (single isomer, unassigned) [Example 1-22-12-2, 6-(7-((3-(dimethylamino)-1-(5-methylpyrazin-2-yl)propyl)amino)thianthren-1-yl)-4-morpholinopyridin-2(1H)-one], for which the IC50 on ATM was < 100 nM. The SER2 (concentration at which the radiation sensitivity-enhancement ratio reaches 2) in assay [1] is < 100 nM.

On to `N#Cc1cccc(CNc2ccc3c(c2)Sc2cccc(-c4cc(N5CCOCC5)cc(=O)[nH]4)c2O3)n1` [Example 4-4-25, 6-(((6-(4-Morpholino-6-oxo-1,6-dihydropyridin-2-yl)phenoxathiin-2-yl)amino)methyl)picolinonitrile], for which the IC50 on ATM was < 100 nM. Moreover, in assay [1] (Homo sapiens, NCI-H460, 120 h), the SER2 (concentration at which the radiation sensitivity-enhancement ratio reaches 2) was in the range of 500 to 2000 nM.

For `O=c1cc(N2CCOCC2)cc(-c2cccc3c2Sc2ccc(NC(CF)CN4CCOCC4)cc2S3)[nH]1` (racemic) [Example 1-41-1-1, 6-(7-((1-Fluoro-3-morpholinopropan-2-yl)amino)thianthren-1-yl)-4-morpholinopyridin-2(1H)-one], on ATM, the IC50 is < 100 nM. Further, in assay [1] (Homo sapiens), the SER2 (concentration at which the radiation sensitivity-enhancement ratio reaches 2) was < 100 nM.

`O=c1cc(N2CCOCC2)cc(-c2cccc3c2Sc2ccc(OCCN4CCOCC4)cc2S3)[nH]1` [Example 1-47, 4-Morpholino-6-(7-(2-morpholinoethoxy)thianthren-1-yl)pyridin-2(1H)-one]: the IC50 on ATM is 100 to 500 nM.

As to `CN(C)c1ncc(CNc2ccc3c(c2)Sc2cccc(-c4cc(N5CCOCC5)cc(=O)[nH]4)c2O3)cn1` [Example 4-4-5, 6-(8-(((2-(Dimethylamino)pyrimidin-5-yl)methyl)amino)phenoxathiin-4-yl)-4-morpholino pyridin-2 (1H)-one], at ATM, the IC50 was 100 to 500 nM.

On to `O=c1cc(N2CCOCC2)cc(-c2cccc3c2Oc2ccc(NC4CCCN(CCc5ccccc5)CC4)cc2S3)[nH]1` (stereo not shown) [Example 4-6-2, 4-Morpholino-6-(8-((1-phenethylazepan-4-yl)amino)phenoxathiin-4-yl)pyridin-2(1H)-one], for which, at ATM, the IC50 was in the range of 100 to 500 nM.

Consider `Cc1cnc(CNc2ccc3c(c2)Cc2cccc(-c4cc(N5CCOCC5)cc(=O)[nH]4)c2O3)s1` [Example 2-14-47, 6-(7-(((5-Methylthiazol-2-yl)methyl)amino)-9H-xanthen-4-yl)-4-morpholino pyridin-2(1H)-one], for which, on ATM, the IC50 lay in the range of 100 to 500 nM.

In the case of `CC(Nc1ccc2c(c1)Cc1cccc(-c3cc(N4CCOCC4)cc(=O)[nH]3)c1O2)c1nccc(CF)n1` (single isomer, unassigned) [Example 2-14-94-2, 6-(7-((1-(4-(fluoromethyl)pyrimidin-2-yl)ethyl)amino)-9H-xanthen-4-yl)-4-morpholinopyridin-2(1H)-one], the IC50 on ATM lay in the range of 100 to 500 nM.

As to `COc1cncc(C(C)Nc2ccc3c(c2)Cc2cccc(-c4cc(N5CCOCC5)cc(=O)[nH]4)c2O3)n1` (stereo not shown) [Example 2-14-57, 6-(7-((1-(6-Methoxypyrazin-2-yl)ethyl)amino)-9H-xanthen-4-yl)-4-morpholino pyridin-2(1H)-one], on ATM, the IC50 is 100 to 500 nM.
